Assay results published in patent publication US20250000843A1, “LIGNAN-INSPIRED COMPOUNDS, METHODS OF MAKING, AND USING THEREOF” (IOWAIBO, INC., priority 2023, published 2025).

How the values were obtained:
[1] = system: MCF7 (human breast cancer cell line); experiment: MTT toxicity assay in MCF7 breast cancer cells; format: cell-based
Procedure: Toxicity of the dibenzyl butyl lactone derivative (3-[(3,4-dimethoxyphenyl)cyclopentyl], 4-[(3-hydroxyphenol)methyl]oxolan-2-one) in breast cancer cells was evaluated using MTT assay. The MTT toxicity test is a colorimetric assay to measure cells' metabolic activity by serving as a substrate of cellular enzymes that reduce the tetrazolium orange dye, MTT (3-(4,5-Dimethylthiazol-2-yl)-2,5-diphenyltetrazolium bromide) to its insoluble, formazan, giving a purple color. The rate of conversion is directly proportional to cells' mitochondrial metabolic activity via NAD (P) H-dependent cellular oxidoreductase enzymes and serves as a surrogate marker of cell viability.
Cultures of MCF7 (human breast cancer cell line) working stock (5 passages) were established under standard culture conditions in Eagle's minimum essential medium (EMEM). EMEM was supplemented with 10% fetal bovine serum (FBS), 2 mM Glutamine and Pen/Strep, and Penicillin 0.01 mg/ml.
Cells previously expanded were seeded in 96 well plates at 1.9×10^5 and 9.6×10^4 cells/plate for 24- and 72-hours treatment respectively. This concentration is known to show the best window for the MTT assay, with better sensitivity and low variability.
5 mg of powdered enterolactone, dibenzyl butyl lactone derivative enantiomer A, and dibenzyl butyl lactone derivative enantiomer B were dissolved in 500 μl of DMSO at room temperature. Eight-point curves, ⅓ dilutions (highest concentration 125 μM), were prepared.
Twenty-four hours following the seeding process, the cells were washed once with phosphate buffered saline (PBS) and treated with the respective compounds in cell culture media. Each condition was tested in triplicates. For positive and negative controls, 8 mM methyl methane sulfonate (MMS) and DMSO 100% were used respectively.
Following compound addition, the plates were incubated for 24 and 72 hours. After the treatment period, cells were washed twice with PBS and media was replaced with MTT reagent at 0.5 mg/ml in Dulbecco's modified Eagle medium (DMEM) without phenol red. The plates were gently shaken and incubated for 4 hours. After the incubation the medium was removed and replaced by DMSO. The plates were gently shaken to solubilize the formazan crystals. Absorbance was measured using an Envision multiplate reader at a wavelength of 570 nm.
Eight serial dilutions were prepared (125.00, 41.67, 13.89, 4.63, 1.54, 0.51, 0.17 and 0.06 µM to evaluate the compounds (in triplicate). MTT results showing cell death values above 20% are considered as having a significant toxic effect.
MTT assay results are shown in Tables 2-7 and expressed as the percentage of cell death after treatment.

[2] = system: human induced pluripotent stem (iPS) cells; format: cell-based
Procedure: The dibenzyl butyl lactone derivative enantiomer A and B were compared to enterolactone and tested to determine toxicity using a human pluripotent stem (hPS) cell-based assay that predicts the developmental toxicity potential. […] The current study was conducted using human induced pluripotent stem (iPS) cells.
The impact of test article exposure on ornithine and cystine metabolism in human induced pluripotent stem (iPS) cells was measured for three test articles (dibenzyl butyl lactone derivative enantiomer A, dibenzyl butyl lactone derivative enantiomer B, and enterolactone) and prediction of the potential for developmental toxicity was made through application of the hPS cell-based assay. Exposure spanned a range of eight treatment levels per test article ranging from 0.03-100 μM.
The observed decrease in the o/c ratio following exposure to each test article is indicative of the potential for developmental toxicity and/or embryo lethality in vivo at or above the dTP concentration. FIGS. 15A-C show the o/c ratio of dibenzyl butyl lactone derivative enantiomer A (FIG. 15A), dibenzyl butyl lactone derivative enantiomer B (FIG. 15B), and (+/−) enterolactone (FIG. 15C). The graphs in FIGS. 15A-C show the cell viability and o/c/ ratio over concentrations of 0.03-100 μM with the straight horizontal line illustrating the developmental toxicity threshold of 0.85.

## O=C1OC[C@H](Cc2cccc(O)c2)[C@H]1Cc1cccc(O)c1 (racemic) [Enterolactone, reference compound]
[1]; MCF7, 24 hours, 0.06 μM
  Cell death #1 (%): −11.97%
  Cell death #2 (%): −41.20%
  Cell death #3 (%): −33.13%
  Cell death (%) MEAN: −28.77%
[1]; MCF7, 24 hours, 0.17 μM
  Cell death #1 (%): −14.66%
  Cell death #2 (%): −12.36%
  Cell death #3 (%): −5.43%
  Cell death (%) MEAN: −10.82%
[1]; MCF7, 24 hours, 0.51 μM
  Cell death #1 (%): 2.26%
  Cell death #2 (%): −23.51%
  Cell death #3 (%): −19.28%
  Cell death (%) MEAN: −13.51%
[1]; MCF7, 24 hours, 1.54 μM
  Cell death #1 (%): −16.20%
  Cell death #2 (%): −16.97%
  Cell death #3 (%): −21.20%
  Cell death (%) MEAN: −18.13%
[1]; MCF7, 24 hours, 4.63 μM
  Cell death #1 (%): −5.05%
  Cell death #2 (%): −19.28%
  Cell death #3 (%): −25.82%
  Cell death (%) MEAN: −16.71%
[1]; MCF7, 24 hours, 13.89 μM
  Cell death #1 (%): −10.05%
  Cell death #2 (%): −8.13%
  Cell death #3 (%): −3.51%
  Cell death (%) MEAN: −7.23%
[1]; MCF7, 24 hours, 41.67 μM
  Cell death #1 (%): −30.05%
  Cell death #2 (%): −30.43%
  Cell death #3 (%): −40.43%
  Cell death (%) MEAN: −33.64%
[1]; MCF7, 24 hours, 125.00 μM
  Cell death #1 (%): −13.51%
  Cell death #2 (%): −8.13%
  Cell death #3 (%): 7.64%
  Cell death (%) MEAN: −4.66%
[1]; MCF7, 72 hours, 0.06 μM
  Cell death #1 (%): −30.40%
  Cell death #2 (%): −23.70%
  Cell death #3 (%): −42.46%
  Cell death (%) MEAN: −32.19%
[1]; MCF7, 72 hours, 0.17 μM
  Cell death #1 (%): −67.59%
  Cell death #2 (%): −62.23%
  Cell death #3 (%): −65.91%
  Cell death (%) MEAN: −65.24%
[1]; MCF7, 72 hours, 0.51 μM
  Cell death #1 (%): −66.25%
  Cell death #2 (%): −61.22%
  Cell death #3 (%): −61.89%
  Cell death (%) MEAN: −63.12%
[1]; MCF7, 72 hours, 1.54 μM
  Cell death #1 (%): −70.27%
  Cell death #2 (%): −54.19%
  Cell death #3 (%): −60.89%
  Cell death (%) MEAN: −61.78%
[1]; MCF7, 72 hours, 4.63 μM
  Cell death #1 (%): −53.85%
  Cell death #2 (%): −66.92%
  Cell death #3 (%): −69.26%
  Cell death (%) MEAN: −63.34%
[1]; MCF7, 72 hours, 13.89 μM
  Cell death #1 (%): −48.83%
  Cell death #2 (%): −38.44%
  Cell death #3 (%): −39.11%
  Cell death (%) MEAN: −42.13%
[1]; MCF7, 72 hours, 41.67 μM
  Cell death #1 (%): −22.36%
  Cell death #2 (%): −24.04%
  Cell death #3 (%): −22.70%
  Cell death (%) MEAN: −23.03%
[1]; MCF7, 72 hours, 125.00 μM
  Cell death #1 (%): 88.19%
  Cell death #2 (%): 90.54%
  Cell death #3 (%): 89.20%
  Cell death (%) MEAN: 89.31%
[2]
  cytotoxicity compared with the other test articles: less cytotoxic than dibenzyl butyl lactone derivative enantiomers A and B
[2]; human
  TP Concentration: 230.8 µM
  dTP Concentration: 21.8 µM
  similarity of dTP concentrations between all three compounds: ≤ 2 fold
